# Assay results published in US20250288572A1, “COMPOSITIONS AND METHODS FOR TREATING PULMONARY VASCULAR DISEASE” (UNIVERSITY OF PITTSBURGH-OF THE COMMONWEALTH SYSTEM OF …, priority 2022, published 2025).
# “Also recorded” adds a separate entry of the source.
# Experiments:
# PAECs [1] = experiment: RT-qPCR gene expression in PAECs; type: cell-based, human
# Description: The hypoxia chamber (modular incubator chamber) was obtained from Billups-Rothenberg Inc. (Del Mar, Cali) and placed in regulated CO2 incubator at 37° C.
# RT-qPCR analysis: Cells were lysis in 1 ml of QiaZol reagent (Qiagen). Total RNA content was extracted using the RNeasy kit (Qiagen), according to the manufacturer's instructions. Total RNA concentration was determined using a BioTek Synergy multimode plate reader. Messenger RNAs were reverse transcribed to generate cDNA using the Multiscript RT kit (Thermo Fisher Scientific). cDNA for specific gene targets was amplified and quantified via fluorescently-labeled Taqman primer sets and Taqman fast advanced master mix (Thermo Fisher Scientific) using an Applied Biosystems QuantStudio 6 Flex Real-Time PCR System.
# [2] = system: monocrotaline-exposed pulmonary arterial hypertension rats; experiment: Monocrotaline (MCT) pulmonary arterial hypertension rat model, dosing Days 12-26
# Description: Measurement of GST activity: The GST activity from lung tissue and PAECs was assayed using GST assay kit (Cayman, MI, USA) per the manufacturer's instructions.
# [3] = system: glutathione S-transferase (GST); experiment: Measurement of GST activity in PAECs; type: cell-based, human
# Description: (§1) BRD2889 (1 uM) vs. vehicle control were added, as indicated, and placed into a hypoxia chamber for 24 h. The hypoxia chamber (modular incubator chamber) was obtained from Billups-Rothenberg Inc. (Del Mar, Cali) and placed in regulated CO2 incubator at 37° C.
# mitochondrial Complex 1 [4] = experiment: Mitochondrial Complex 1 activity in PAECs; type: cell-based, human
# Description: (§2) Measurement of mitochondrial complex activities: Complex 1 activity of isolated mitochondria were measured using Complex 1 Enzyme Activity Microplate assay kit (Abcam, ab109721) according to the manufacturer's protocol. These enzymes were captured within the wells of the microplate coated by the corresponding complex enzyme antibody, and activities were detected colorimetrically.
# PAECs [5] = experiment: BrdU growth (proliferation) assay in PAECs; type: cell-based, human
# Description: (§3) BrdU growth assay: Cell proliferation was assayed relative to day 0 using a BrdU Cell Proliferation Assay Kit (#6813, Cell Signaling) according to the manufacturer's protocol after incubation for 2 h with BrdU.
# [6] = system: glutathione S-transferase (GST); experiment: Measurement of GST activity in PASMCs; type: cell-based, human; conditions: IL-6/sIL-6R + hypoxia, BRD2889 1 uM
# Description: as §1
# ISCU = experiment: Immunoblot and densitometry of ISCU and GSTP1 in PASMCs; type: cell-based, human; conditions: IL-6/sIL-6R + hypoxia, BRD2889 1 uM
# Description: as §1
# Immunoblot and densitometry: Cells were lysed in RIPA buffer (Sigma) along with 1× protease inhibitor cocktail (Sigma). Protein lysate was resolved by gradient 4%-15% SDS-PAGE gels and transferred onto a 0.2 μm PVDF membrane (Bio-Rad). Membranes were blocked in 5% non-fat milk in 1×PBST buffer for one hour at room temperature. Later, they were incubated in the presence of the primary antibody overnight at 4° C., and then appropriate HRP-conjugated secondary antibodies (Life Technologies). The following antibodies were used: human LGALS8 (AF1305, RnD Systems), mouse/rat Lgals8 ([…], Abcam), pSTAT1 (ab29045, Abcam) and STAT1 (ab47425, Abcam), GSTP1 (ab153949, Abcam), ISCU (14812-1-AP, Pointech), Glutathione (ab19534, Abcam), HIF2A (NB100-122, Novous), α-Tubulin (CP06, Millipore sigma), and ACTB (sc-47778, Santa Cruz). The immunoreactive bands were visualized with the Chemidoc XRS+ system (Bio-Rad) using SuperSignal West Femto chemiluminescent substrates (Thermo Fisher Scientific). The images were later quantified using AlphaEaseFC software (Alpha Innotech).
# mitochondrial Complex 1 [7] = experiment: Mitochondrial Complex 1 activity in PASMCs; type: cell-based, human; conditions: IL-6/sIL-6R + hypoxia
# Description: as §1, §2
# PASMCs [8] = experiment: BrdU proliferation in PASMCs; type: cell-based, human; conditions: IL-6/sIL-6R + hypoxia
# Description: as §1, §3
# PASMCs [9] = experiment: Apoptosis (caspase 3/7) in PASMCs; type: cell-based, human; conditions: IL-6/sIL-6R + hypoxia
# Description: as §1
# Cellular apoptosis: Caspase-3/7 activity was quantified using the Caspase-Glo 3/7 Assay (Promega), according to manufacturer's instructions. Caspase-3/7 activity was normalized to total protein content determined by BCA method (Thermo Fisher Scientific).
# [10] = I-BET762 30 mg/kg daily i.p. or BRD2889 5 mg/kg i.p. every 5 days, Days 12-26
# [11] = hypoxic PAECs with siRNA knockdown of ISCU
smiles,measurement,setting,value
"COc1ccc(C#CC2CCCN(C(=O)/C=C/c3cc(OC)c(OC)c(OC)c3)C2=O)cc1 (stereo not drawn) [BRD2889, (E)-3-((4-methoxyphenyl)ethynyl)-1-(3-(3,4,5-trimethoxyphenyl)acryloyl)piperidin-2-one]","inflammatory gene transcripts (EDN1, VCAM1, ICAM1)",PAECs [1]; IL-6/sIL-6R + hypoxia,normalized this upregulation
same,ISCU transcript,"PAECs [1]; hypoxia 48 hrs, BRD2889 5 uM",fully reversing the hypoxic decrease of ISCU; also recorded: rescued by BRD2889
same,"expression of C43 genes MID2, BANP, AGTRAP","PAECs [1]; hypoxia 48 hrs, BRD2889 5 uM",unaffected in hypoxia by BRD2889
same,mTOR transcript,"PAECs [1]; hypoxia 48 hrs, BRD2889 5 uM",partially reversing the decrease of mTOR; also recorded: rescued by BRD2889
same,endothelial ISCU (immunofluorescence),[2]; BRD2889 5 mg/kg i.p. every 5 days,increased
same,lung GST activity,"[2]; BRD2889 5 mg/kg i.p. every 5 days, 5 mg/kg",reduced; also recorded: decreased
same,"transcript levels of injury markers of liver (Got, Gpt1), kidney (Cst3, Lcn2), intestines (Ldha), tissue toxicity","[2]; BRD2889 vs VC, RT-qPCR",no indication of overt tissue toxicities
same,Fulton index (RV/LV+S),[2]; [10],reducing; also recorded: reduced
same,arteriolar muscularization (α-SMA),[2]; [10],reducing; also recorded: reduced
same,"cleaved caspase-3 (CC-3), endothelial apoptosis",[2]; [10],reducing; also recorded: decreased
same,right ventricular systolic pressure (RVSP),[2]; [10],reducing; also recorded: reduced
same,"aortic blood pressure (mean arterial pressure, MAP)",[2]; vs vehicle control,without significant alterations
same,heart rate,[2]; vs vehicle control,without significant alterations
same,GST activity,"[3]; PAECs, IL-6/sIL-6R + hypoxia, BRD2889 1 uM",reversed the increase in GSTP1 activity; also recorded: reversed the IL-6/R+ hypoxia-mediated increase
same,GST enzyme activity,[3]; hypoxic PAECs,reduced the hypoxic increase in GST enzyme activity; also recorded: reversed hypoxic alterations
same,mitochondrial Complex 1 activity,"mitochondrial Complex 1 [4]; PAECs, IL-6/sIL-6R + hypoxia",partially rescued mitochondrial Complex 1 activity; also recorded: reversing the IL-6/R+hypoxia-mediated decrease
same,mitochondrial Complex 1 activity,mitochondrial Complex 1 [4]; hypoxic PAECs,reversed the decrease; also recorded: reversed hypoxic alterations
same,mitochondrial Complex 1 activity,mitochondrial Complex 1 [4]; [11],did not reverse the hypoxia-induced decrease
same,proliferation (BrdU incorporation),"PAECs [5]; PAECs, IL-6/sIL-6R + hypoxia",increased proliferation; also recorded: reversing
same,proliferation (BrdU incorporation),PAECs [5]; hypoxic PAECs,reversed the decrease; also recorded: reversed hypoxic alterations
same,proliferation (BrdU incorporation),PAECs [5]; [11],did not reverse the hypoxia-induced decrease
same,GST activity,[6],failed to rescue ISCU or alter GST activity; also recorded: did not affect
same,GSTP1 protein expression,ISCU,did not affect
same,ISCU protein,ISCU,failed to rescue ISCU
same,mitochondrial Complex 1 activity,mitochondrial Complex 1 [7],did not affect
same,proliferation,PASMCs [8],did not affect
same,apoptosis,PASMCs [9],only subtly changed
